This passage reports IC50 results from US8471005B2 (Cephalon, Inc., priority 2008, dated 2013).

One test concerns the target T1, ALK (Homo sapiens, UniProt Q9UM73).
T1 construct: host or cells: baculovirus expression system
Briefly: ALK Kinase Assay (ELISA/TRF, PLC-γ substrate). Type of test: biochemical. Conditions: ALK Kinase Inhibition; read-out: ALK Potency. In short, it runs like this:
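Read-out is time-resolved fluorescence from a Eu-N1-labeled PT66 antibody that binds phosphorylated PLC-γ, the substrate coated at 10 μg/mL in TBS. ALK at 30 ng/ml starts the reaction, which runs 15 minutes at 37° C.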
(In an ELISA, binding on a coated surface is turned into a signal by an enzyme label.)

The next test concerns the target T2, JAK2 (Homo sapiens, UniProt O60674).
T2 construct: host or cells: baculovirus expression system
The test is described as follows: Recombinant Human JAK2 Kinase Assay (TRF). Type of test: biochemical. As to conditions: JAK2 Kinase Inhibition; read-out: JAK2 Potency. In short, it runs like this:
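Baculovirus-expressed JAK2 (15 ng/ml) phosphorylated a biotinylated 15-mer peptide captured on Neutravidin-coated plates, in 20 mM HEPES pH 7.2 with 0.2 μM ATP, 1 mM MnCl2, 0.1% BSA and 2.5% DMSO. Reaction ran 20 min at room temperature; phosphopeptide was detected by time-resolved fluorescence with Eu-N1-labelled PY100 antibody.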

T2 sequence (O60674 whole entry): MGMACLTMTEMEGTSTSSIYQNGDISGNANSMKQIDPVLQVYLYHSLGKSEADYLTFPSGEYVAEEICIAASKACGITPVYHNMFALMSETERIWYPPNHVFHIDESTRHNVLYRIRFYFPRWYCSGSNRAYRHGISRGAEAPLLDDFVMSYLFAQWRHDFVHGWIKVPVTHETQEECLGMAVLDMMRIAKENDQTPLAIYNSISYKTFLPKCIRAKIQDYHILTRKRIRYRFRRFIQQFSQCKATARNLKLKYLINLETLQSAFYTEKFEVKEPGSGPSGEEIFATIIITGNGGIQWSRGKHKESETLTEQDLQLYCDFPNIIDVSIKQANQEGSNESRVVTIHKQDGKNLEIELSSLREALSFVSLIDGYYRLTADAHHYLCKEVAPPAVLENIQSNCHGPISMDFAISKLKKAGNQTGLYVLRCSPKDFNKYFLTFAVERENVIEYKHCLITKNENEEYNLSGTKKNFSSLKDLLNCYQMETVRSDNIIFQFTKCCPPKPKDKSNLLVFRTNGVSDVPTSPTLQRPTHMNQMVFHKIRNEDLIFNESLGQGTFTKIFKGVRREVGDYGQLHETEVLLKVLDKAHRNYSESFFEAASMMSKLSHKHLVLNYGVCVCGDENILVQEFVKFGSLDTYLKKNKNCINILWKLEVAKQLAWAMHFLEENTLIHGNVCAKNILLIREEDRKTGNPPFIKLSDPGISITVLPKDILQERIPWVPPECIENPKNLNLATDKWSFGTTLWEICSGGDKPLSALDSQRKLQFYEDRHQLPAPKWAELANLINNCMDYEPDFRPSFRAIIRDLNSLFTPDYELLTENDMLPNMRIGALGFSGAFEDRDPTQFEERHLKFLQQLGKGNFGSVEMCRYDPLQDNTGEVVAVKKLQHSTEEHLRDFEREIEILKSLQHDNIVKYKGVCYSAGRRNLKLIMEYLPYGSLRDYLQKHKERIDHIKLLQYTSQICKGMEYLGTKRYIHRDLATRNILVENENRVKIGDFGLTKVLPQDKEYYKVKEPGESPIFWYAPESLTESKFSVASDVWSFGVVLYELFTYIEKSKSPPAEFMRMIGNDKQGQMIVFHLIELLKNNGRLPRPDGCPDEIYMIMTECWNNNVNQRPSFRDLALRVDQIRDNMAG
T1 sequence (Q9UM73 19-1620): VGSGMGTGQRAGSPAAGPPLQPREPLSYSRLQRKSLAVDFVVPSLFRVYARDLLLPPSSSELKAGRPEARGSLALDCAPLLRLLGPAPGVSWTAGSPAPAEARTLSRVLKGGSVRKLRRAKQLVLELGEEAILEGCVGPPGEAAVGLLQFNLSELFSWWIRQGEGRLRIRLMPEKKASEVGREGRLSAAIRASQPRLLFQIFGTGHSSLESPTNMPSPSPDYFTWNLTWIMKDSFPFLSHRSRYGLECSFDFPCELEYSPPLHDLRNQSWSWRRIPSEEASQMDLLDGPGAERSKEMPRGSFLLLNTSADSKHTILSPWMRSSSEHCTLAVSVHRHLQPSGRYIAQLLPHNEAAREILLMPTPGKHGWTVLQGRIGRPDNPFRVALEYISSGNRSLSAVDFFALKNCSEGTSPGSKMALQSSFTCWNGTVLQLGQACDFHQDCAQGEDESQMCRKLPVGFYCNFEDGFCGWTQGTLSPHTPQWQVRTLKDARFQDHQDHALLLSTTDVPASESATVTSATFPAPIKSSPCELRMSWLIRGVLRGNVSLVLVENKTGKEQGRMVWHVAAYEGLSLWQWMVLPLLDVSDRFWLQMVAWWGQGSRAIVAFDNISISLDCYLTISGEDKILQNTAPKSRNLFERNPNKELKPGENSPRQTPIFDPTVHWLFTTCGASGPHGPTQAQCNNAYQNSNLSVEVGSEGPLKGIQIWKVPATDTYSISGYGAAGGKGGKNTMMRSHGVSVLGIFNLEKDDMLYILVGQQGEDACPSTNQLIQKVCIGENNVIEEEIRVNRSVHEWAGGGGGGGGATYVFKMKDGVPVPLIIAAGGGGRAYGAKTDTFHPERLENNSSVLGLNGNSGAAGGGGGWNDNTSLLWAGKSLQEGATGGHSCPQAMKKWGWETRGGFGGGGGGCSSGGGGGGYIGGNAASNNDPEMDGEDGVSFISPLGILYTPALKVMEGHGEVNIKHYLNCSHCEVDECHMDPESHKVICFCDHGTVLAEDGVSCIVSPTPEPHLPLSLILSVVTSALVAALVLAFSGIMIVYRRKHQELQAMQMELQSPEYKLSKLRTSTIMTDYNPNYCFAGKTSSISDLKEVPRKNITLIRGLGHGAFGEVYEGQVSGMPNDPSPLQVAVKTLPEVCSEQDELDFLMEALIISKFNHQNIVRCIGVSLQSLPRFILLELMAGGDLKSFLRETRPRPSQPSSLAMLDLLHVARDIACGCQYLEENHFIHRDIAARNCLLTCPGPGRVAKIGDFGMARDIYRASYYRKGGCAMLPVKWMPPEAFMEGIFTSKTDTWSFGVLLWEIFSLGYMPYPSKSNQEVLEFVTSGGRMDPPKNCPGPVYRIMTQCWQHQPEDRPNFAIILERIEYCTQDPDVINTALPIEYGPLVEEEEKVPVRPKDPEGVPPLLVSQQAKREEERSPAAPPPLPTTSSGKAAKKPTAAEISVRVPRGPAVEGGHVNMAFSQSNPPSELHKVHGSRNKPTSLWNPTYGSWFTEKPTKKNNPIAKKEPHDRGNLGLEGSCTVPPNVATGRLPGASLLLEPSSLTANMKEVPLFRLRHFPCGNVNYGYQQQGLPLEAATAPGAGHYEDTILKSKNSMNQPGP

As to `COc1ccc(Cl)cc1-c1ccc2cnc(Nc3ccc4[nH]ccc4c3)nn12` [Example 171, [7-(5-Chloro-2-methoxy-phenyl)-pyrrolo[2,1-f][1,2,4]triazin-2-yl]-(1H-indol-5-yl)-amine], the IC50 at ALK is 100 to 1000 nM; on JAK2, less than 100 nM.

In the case of `COc1ccccc1-c1ccc2cnc(Nc3ccc4ncccc4c3)nn12` [Example 172, [7-(2-Methoxy-phenyl)-pyrrolo[2,1-f][1,2,4]triazin-2-yl]-quinolin-6-yl-amine], the IC50 on ALK was 1000 to 10000 nM; on JAK2, less than 100 nM.

As for `COc1ccc(Cl)cc1-c1ccc2cnc(Nc3ccc4ncccc4c3)nn12` [Example 173, [7-(5-Chloro-2-methoxy-phenyl)-pyrrolo[2,1-f][1,2,4]triazin-2-yl]-quinolin-6-yl-amine], the IC50 at ALK is 100 to 1000 nM; on JAK2, less than 100 nM.

`c1cc(Nc2ncc3cccn3n2)cc(N2CCOCC2)c1` [Example 174, (3-Morpholin-4-yl-phenyl)-pyrrolo[2,1-f][1,2,4]triazin-2-yl-amine]: the IC50 on ALK is more than 10000 nM; at JAK2 it was 100 to 1000 nM.

In the case of `Fc1cccc(-c2ccc3cnc(Nc4cccc(N5CCOCC5)c4)nn23)c1` [Example 175, [7-(3-Fluoro-phenyl)-pyrrolo[2,1-f][1,2,4]triazin-2-yl]-(3-morpholin-4-yl-phenyl)-amine], the results for the IC50 on ALK and on JAK2 were 100 to 1000 nM and less than 100 nM, respectively.

As to `Clc1cccc(-c2ccc3cnc(Nc4ccc5[nH]ccc5c4)nn23)c1` [Example 176, [7-(3-Chloro-phenyl)-pyrrolo[2,1-f][1,2,4]triazin-2-yl]-(1H-indol-5-yl)-amine], the IC50 is more than 10000 nM on ALK and less than 100 nM at JAK2.

As for `Clc1cccc(-c2ccc3cnc(Nc4ccc5ncccc5c4)nn23)c1` [Example 177, [7-(3-Chloro-phenyl)-pyrrolo[2,1-f][1,2,4]triazin-2-yl]-quinolin-6-yl-amine], the IC50 is 100 to 1000 nM at ALK and less than 100 nM at JAK2.

Turning to `COc1ccccc1-c1ccc2cnc(Nc3cccc(N4CCN(CCO)CC4)c3)nn12` [Example 178, 2-(4-{3-[7-(2-Methoxy-phenyl)-pyrrolo[2,1-f][1,2,4]triazin-2-ylamino]-phenyl}-piperazin-1-yl)-ethanol], the IC50 on ALK and on JAK2 was less than 100 nM in each case.

Take `OCCN1CCN(c2cccc(Nc3ncc4ccc(-c5cccc(Cl)c5)n4n3)c2)CC1` [Example 179, 2-(4-{3-[7-(3-Chloro-phenyl)-pyrrolo[2,1-f][1,2,4]triazin-2-ylamino]-phenyl}-piperazin-1-yl)-ethanol]: the IC50 at ALK and on JAK2 was less than 100 nM each time.

On to `COc1ccc(Cl)cc1-c1ccc2cnc(Nc3cccc(N4CCN(CCO)CC4)c3)nn12` [Example 180, 2-(4-{3-[7-(5-Chloro-2-methoxy-phenyl)-pyrrolo[2,1-f][1,2,4]triazin-2-ylamino]-phenyl}-piperazin-1-yl)-ethanol], for which the IC50 on ALK and on JAK2 was less than 100 nM throughout.

Take `CS(=O)(=O)c1ccc(-c2ccc3cnc(Nc4cccc(N5CCN(CCO)CC5)c4)nn23)cc1` [Example 181, 2-(4-{3-[7-(4-Methanesulfonyl-phenyl)-pyrrolo[2,1-f][1,2,4]triazin-2-ylamino]-phenyl}-piperazin-1-yl)-ethanol]: the IC50 is 100 to 1000 nM at ALK and less than 100 nM on JAK2.

For the compound `CS(=O)(=O)Nc1ccc(-c2ccc3cnc(Nc4cccc(N5CCOCC5)c4)nn23)cc1` [Example 182, N-{4-[2-(3-Morpholin-4-yl-phenylamino)-pyrrolo[2,1-f][1,2,4]triazin-7-yl]-phenyl}-methanesulfonamide], the IC50 is 100 to 1000 nM at ALK and less than 100 nM on JAK2.

Turning to `CS(=O)(=O)Nc1cccc(-c2ccc3cnc(Nc4cccc(N5CCOCC5)c4)nn23)c1` [Example 183, N-{3-[2-(3-Morpholin-4-yl-phenylamino)-pyrrolo[2,1-f][1,2,4]triazin-7-yl]-phenyl}-methanesulfonamide], the figures for the IC50 on ALK and on JAK2 were 100 to 1000 nM and less than 100 nM, respectively.

For the compound `CS(=O)(=O)c1cccc(-c2ccc3cnc(Nc4cccc(N5CCOCC5)c4)nn23)c1` [Example 184, [7-(3-Methanesulfonyl-phenyl)-pyrrolo[2,1-f][1,2,4]triazin-2-yl]-(3-morpholin-4-yl-phenyl)-amine], the IC50 at ALK was 1000 to 10000 nM; at JAK2, less than 100 nM.

Take `COc1cc(Nc2ncc3ccc(-c4cccc(S(C)(=O)=O)c4)n3n2)cc(OC)c1OC` [Example 185, [7-(3-Methanesulfonyl-phenyl)-pyrrolo[2,1-f][1,2,4]triazin-2-yl]-(3,4,5-trimethoxy-phenyl)-amine]: the IC50 on ALK is 100 to 1000 nM; on JAK2 it was less than 100 nM.

In the case of `COc1ccccc1-c1ccc2cnc(Nc3ccc(N4CCOCC4)c(F)c3)nn12` [Example 186, (3-Fluoro-4-morpholin-4-yl-phenyl)-[7-(2-methoxy-phenyl)-pyrrolo[2,1-f][1,2,4]triazin-2-yl]-amine], the IC50 was 100 to 1000 nM at ALK and less than 100 nM on JAK2.

With `Fc1cc(Nc2ncc3ccc(-c4cccc(Cl)c4)n3n2)ccc1N1CCOCC1` [Example 187, [7-(3-Chloro-phenyl)-pyrrolo[2,1-f][1,2,4]triazin-2-yl]-(3-fluoro-4-morpholin-4-yl-phenyl)-amine], the IC50 on ALK was more than 10000 nM; at JAK2 it was less than 100 nM.

Consider `COc1ccc(Cl)cc1-c1ccc2cnc(Nc3ccc(N4CCOCC4)c(F)c3)nn12` [Example 188, [7-(5-Chloro-2-methoxy-phenyl)-pyrrolo[2,1-f][1,2,4]triazin-2-yl]-(3-fluoro-4-morpholin-4-yl-phenyl)-amine], for which the IC50 on ALK was 1000 to 10000 nM; on JAK2, less than 100 nM.

With `CS(=O)(=O)c1ccc(-c2ccc3cnc(Nc4ccc(N5CCOCC5)c(F)c4)nn23)cc1` [Example 189, (3-Fluoro-4-morpholin-4-yl-phenyl)-[7-(4-methanesulfonyl-phenyl)-pyrrolo[2,1-f][1,2,4]triazin-2-yl]-amine], the IC50 at ALK is more than 10000 nM; at JAK2, less than 100 nM.

In the case of `COCCOc1ncc2ccc(-c3cccc(Cl)c3)n2n1` [Example 190, 7-(3-Chloro-phenyl)-2-(2-methoxy-ethoxy)-pyrrolo[2,1-f][1,2,4]triazine], the IC50 on ALK is more than 10000 nM; on JAK2, less than 100 nM.

As for `COCCOc1ncc2ccc(-c3cc(Cl)ccc3OC)n2n1` [Example 191, 7-(5-Chloro-2-methoxy-phenyl)-2-(2-methoxy-ethoxy)-pyrrolo[2,1-f][1,2,4]triazine], the figures for the IC50 on ALK and at JAK2 were more than 10000 nM and less than 100 nM, respectively.

As to `CC(C)S(=O)(=O)c1ccc(-c2ccc3cnc(Nc4cccc(N5CCOCC5)c4)nn23)cc1` [Example 192, (3-Morpholin-4-yl-phenyl)-{7-[4-(propane-2-sulfonyl)-phenyl]-pyrrolo[2,1-f][1,2,4]triazin-2-yl}-amine], the values for the IC50 at ALK and at JAK2 were 1000 to 10000 nM and less than 100 nM, respectively.

With `CS(=O)(=O)c1ccc(-c2ccc3cnc(Nc4cccc(N5CCOCC5)c4)nn23)cc1F` [Example 193, [7-(3-Fluoro-4-methanesulfonyl-phenyl)-pyrrolo[2,1-f][1,2,4]triazin-2-yl]-(3-morpholin-4-yl-phenyl)-amine], the IC50 at ALK is 1000 to 10000 nM; on JAK2, less than 100 nM.

In the case of `CNC(=O)c1ccc(-c2ccc3cnc(Nc4cccc(N5CCOCC5)c4)nn23)cc1` [Example 194, N-Methyl-4-[2-(3-morpholin-4-yl-phenylamino)-pyrrolo[2,1-f][1,2,4]triazin-7-yl]-benzamide], the IC50 at ALK was 100 to 1000 nM; on JAK2, less than 100 nM.

Regarding `COc1ccccc1-c1ccc2cnc(Nc3cccc(N4CCC(N5CCOCC5)CC4)c3)nn12` [Example 195, [7-(2-Methoxy-phenyl)-pyrrolo[2,1-f][1,2,4]triazin-2-yl]-[3-(4-morpholin-4-yl-piperidin-1-yl)-phenyl]-amine], the IC50 on ALK and at JAK2 was less than 100 nM throughout.

`COc1ccc(Cl)cc1-c1ccc2cnc(Nc3cccc(N4CCC(N5CCOCC5)CC4)c3)nn12` [Example 196, [7-(5-Chloro-2-methoxy-phenyl)-pyrrolo[2,1-f][1,2,4]triazin-2-yl]-[3-(4-morpholin-4-yl-piperidin-1-yl)-phenyl]-amine]: the IC50 at ALK and on JAK2 was less than 100 nM in each case.

As to `COCCOc1ncc2ccc(-c3ccc(S(C)(=O)=O)cc3)n2n1` [Example 197, 7-(4-Methanesulfonyl-phenyl)-2-(2-methoxy-ethoxy)-pyrrolo[2,1-f][1,2,4]triazine], the IC50 was more than 10000 nM on ALK and 100 to 1000 nM on JAK2.

With `Cn1cc(-c2ccc3cnc(Nc4cccc(N5CCOCC5)c4)nn23)cn1` [Example 198, [7-(1-Methyl-1H-pyrazol-4-yl)-pyrrolo[2,1-f][1,2,4]triazin-2-yl]-(3-morpholin-4-yl-phenyl)-amine], the IC50 at ALK was 100 to 1000 nM; at JAK2, less than 100 nM.

`CC(C)S(=O)(=O)c1ccc(-c2ccc3cnc(Nc4ccc(N5CCOCC5)cc4)nn23)cc1` [Example 199, (4-Morpholin-4-yl-phenyl)-{7-[4-(propane-2-sulfonyl)-phenyl]-pyrrolo[2,1-f][1,2,4]triazin-2-yl}-amine]: the IC50 is 1000 to 10000 nM on ALK and less than 100 nM on JAK2.

Take `CS(=O)(=O)Nc1ccc(-c2ccc3cnc(Nc4ccc(N5CCOCC5)cc4)nn23)cc1` [Example 200, N-{4-[2-(4-Morpholin-4-yl-phenylamino)-pyrrolo[2,1-f][1,2,4]triazin-7-yl]-phenyl}-methanesulfonamide]: the IC50 at ALK was 100 to 1000 nM; at JAK2, less than 100 nM.
